Results taken from US8455475B2 (Gruenenthal GmbH, priority 2009, dated 2013).

Tests used:
[1] = target: T1, human B1R (bradykinin receptor 1) (Homo sapiens, UniProt P46663); experiment: FLIPR Ca2+ assay (Fluo-4) on CHO K1 cells stably transfected with the human B1R gene (hB1R cells): % inhibition at 10 μM / IC50, agonist Lys-Des-Arg9-bradykinin; type: cell-based; details: CHO-K1, human B1R
T1 construct: expressed in transfected cells; host or cells: CHO K1 cells
T1 sequence (P46663 1-353): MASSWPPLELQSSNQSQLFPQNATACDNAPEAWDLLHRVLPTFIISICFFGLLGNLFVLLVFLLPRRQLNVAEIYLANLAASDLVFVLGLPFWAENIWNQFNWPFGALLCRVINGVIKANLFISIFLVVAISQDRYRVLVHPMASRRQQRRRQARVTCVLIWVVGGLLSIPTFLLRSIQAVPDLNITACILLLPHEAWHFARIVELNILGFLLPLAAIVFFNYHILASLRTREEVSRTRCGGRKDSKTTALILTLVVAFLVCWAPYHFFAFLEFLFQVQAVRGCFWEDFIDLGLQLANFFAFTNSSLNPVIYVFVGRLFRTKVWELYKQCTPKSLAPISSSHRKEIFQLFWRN
Outline: (§1)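 Using a two-addition FLIPR protocol, compound (10 μM for % values; concentration series for IC50) was preincubated 10–20 min with Fluo-4-loaded B1R-expressing CHO K1 cells before EC80 agonist challenge. Suppression of Ca2+ inflow, read as peak fluorescence, is expressed relative to maximum achievable inhibition; duplicate/triplicate, ≥2 independent experiments.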

[2] = target: T2, rat B1R (bradykinin receptor 1) (Rattus norvegicus, UniProt P97583); experiment: FLIPR Ca2+ assay (Fluo-4) on CHO K1 cells stably transfected with the B1R gene of the rat (rB1R cells): % inhibition at 10 μM / IC50, agonist Des-Arg9-bradykinin; type: cell-based; details: CHO-K1, rat B1R
T2 construct: expressed in transfected cells; host or cells: CHO K1 cells
T2 sequence (P97583 1-337): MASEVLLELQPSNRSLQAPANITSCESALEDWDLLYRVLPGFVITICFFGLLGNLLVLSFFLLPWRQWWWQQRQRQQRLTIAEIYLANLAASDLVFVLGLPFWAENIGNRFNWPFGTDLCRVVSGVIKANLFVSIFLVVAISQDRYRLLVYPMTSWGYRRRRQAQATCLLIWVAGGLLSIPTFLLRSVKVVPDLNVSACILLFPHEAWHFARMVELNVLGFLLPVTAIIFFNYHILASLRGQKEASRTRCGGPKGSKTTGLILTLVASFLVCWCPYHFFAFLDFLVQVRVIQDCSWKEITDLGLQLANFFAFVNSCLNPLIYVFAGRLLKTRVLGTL
Outline: as §1

`CC1(C)Cc2ccc(C(=O)N3CCC4(CC3)CCN(c3ccncc3)CC4)cc2C1NC(=O)c1cc(Cl)ccc1Cl` (stereo not shown) [IND_CC-210, 2,5-Dichloro-N-[2,2-dimethyl-6-(9-pyridin-4-yl-3,9-diazaspiro[5.5]undecane-3-carbonyl)-1,3-dihydro-inden-1-yl]-benzamide] was tested, and the inhibition at 10 µM [1] was 97% and the inhibition at 10 µM [2] was 104%.

Compound `CN(C(=O)/C=C/c1ccccc1Cl)C1CCc2ccc(C(=O)N3CCC4(CC3)CCN(c3ccncc3)CC4)cc21` (stereo not shown) [Ind_CC-020, (E)-3-(2-chlorophenyl)-N-methyl-N-[6-(9-pyridin-4-yl-3,9-diazaspiro[5.5]undecane-3-carbonyl)-2,3-dihydro-1H-inden-1-yl]-acrylamide] has an inhibition at 10 µM [1] of 89% and an inhibition at 10 µM [2] of 88%.

Work on `O=C(c1ccc2c(c1)[C@H](N1Cc3cccc(Cl)c3C1=O)CC2)N1CCC2(CCN(c3ccncc3)CC2)C1` [Example H-96, 7-Chloro-2-[(1R)-6-(8-pyridin-4-yl-3,8-diazaspiro[4.5]decane-3-carbonyl)-2,3-dihydro-1H-inden-1-yl]-2,3-dihydro-isoindol-1-one] yielded an inhibition at 10 µM [1] of 100% and an inhibition at 10 µM [2] of 104%.

`O=C(c1ccc2c(c1)[C@H](NS(=O)(=O)c1ccccc1Cl)CC2)N1CCC2(CCN(c3ccncc3)CC2)C1` [Example H-105, 2-Chloro-N-[(1R)-6-(8-pyridin-4-y-3,8-diazaspiro[4.5]decane-3-carbonyl)-2,3-dihydro-1H-inden-1-yl]-benzenesulfonic acid amide] was tested, and the inhibition at 10 µM [1] was 100% and the inhibition at 10 µM [2] was 107%.

For `COc1ccc(S(=O)(=O)N[C@@H]2CCc3ccc(C(=O)N4CCC5(CCN(c6ccncc6)CC5)C4)cc32)c(C(F)(F)F)c1` [Example H-144, 4-Methoxy-N-[(1R)-6-(8-pyridin-4-yl-3,8-diazaspiro[4.5]decane-3-carbonyl)-2,3-dihydro-1H-inden-1-yl]-2-(trifluoromethyl)-benzenesulfonic acid amide], the inhibition at 10 µM [1] was 99% and the inhibition at 10 µM [2] was 104%.

`O=C(NC1CCc2ccc(C(=O)N3CCC4(CC3)CCN(c3ccc(C(F)(F)F)cc3)CC4)cc21)c1cccc(Cl)c1Cl` (stereo not shown) [IND_CC-281, 2,3-Dichloro-N-[6-[9-[4-(trifluoromethyl)-phenyl]-3,9-diazaspiro[5.5]undecane-3-carbonyl]-2,3-dihydro-1H-inden-1-yl]-benzamide] was tested, and the inhibition at 10 µM [1] was 84% and the inhibition at 10 µM [2] was 105%.

Compound `O=C(NC1CCc2ccc(C(=O)N3CCC4(CC3)CCN(c3ccncc3)C4)cc21)c1sccc1Cl` (stereo not shown) [Ind_CC-042, 3-chloro-N-[6-(2-pyridin-4-yl-2,8-diazaspiro[4.5]decane-8-carbonyl)-2,3-dihydro-1H-inden-1-yl]-thiophene-2-carboxylic acid amide] has an inhibition at 10 µM [1] of 98% and an inhibition at 10 µM [2] of 101%.

`O=C(NC1CCc2ccc(C(=O)N3CCC4(CCN(Cc5ccncc5)CC4)CC3)cc21)c1ccccc1Cl` (stereo not shown) [Ind_CC-098, 2-chloro-N-[6-[9-(pyridin-4-yl-methyl)-3,9-diazaspiro[5.5]undecane-3-carbonyl]-2,3-dihydro-1H-inden-1-yl]-benzamide] showed an inhibition at 10 µM [1] of 34% and an inhibition at 10 µM [2] of 98%.

For `O=C(NC1CCc2ccc(C(=O)N3CCC4(CC3)CCN(c3ccncc3)CC4)cc21)c1c(Cl)cccc1C(F)(F)F` (stereo not shown) [IND_CC-204, 2-Chloro-N-[6-(9-pyridin-4-yl-3,9-diazaspiro[5.5]undecane-3-carbonyl)-2,3-dihydro-1H-inden-1-yl]-6-(trifluoromethyl)-benzamide], the inhibition at 10 µM [1] was 99% and the inhibition at 10 µM [2] was 102%.

`O=C(NC1CCc2ccc(C(=O)N3CCC4(CC3)CCN(c3ccncc3)CC4)cc21)c1c(Cl)cccc1Cl` (stereo not shown) [IND_CC-269, 2,6-Dichloro-N-[6-(9-pyridin-4-yl-3,9-diazaspiro[5.5]undecane-3-carbonyl)-2,3-dihydro-1H-inden-1-yl]-benzamide] showed an inhibition at 10 µM [1] of 100% and an inhibition at 10 µM [2] of 107%.

In the case of `O=C(NC1CCc2ccc(C(=O)N3CCC4(CCN(c5ccncc5)CC4)C3)cc21)c1ccccn1` (stereo not shown) [Ind_CC-084, N-[6-(8-pyridin-4-yl-3,8-diazaspiro[4.5]decane-3-carbonyl)-2,3-dihydro-1H-inden-1-yl]-pyridine-2-carboxylic acid amide], the inhibition at 10 µM [1] is reported as 99% and the inhibition at 10 µM [2] is reported as 100%.

`O=C(/C=C/c1ccccc1Cl)NC1CCc2ccc(C(=O)N3CCC4(CC3)CCN(c3ccncc3)CC4)cc21` (stereo not shown) [Ind_CC-008, (E)-3-(2-chlorophenyl)-N-[6-(9-pyridin-4-yl-3,9-diazaspiro[5.5]undecane-3-carbonyl)-2,3-dihydro-1H-inden-1-yl]-acrylamide] gave an inhibition at 10 µM [1] of 72% and an inhibition at 10 µM [2] of 74%.

With `CN(C(=O)c1ccccc1Cl)C1CCc2ccc(C(=O)N3CCC4(CC3)CCN(c3ccc(F)cc3)CC4)cc21` (stereo not shown) [Ind_CC-108, 2-chloro-N-[6-[9-(4-fluorophenyl)-3,9-diazaspiro[5.5]undecane-3-carbonyl]-2,3-dihydro-1H-inden-1-yl]-N-methyl-benzamide] the inhibition at 10 µM [1] was 23% and the inhibition at 10 µM [2] was 51%.

`COc1cc(C)c(S(=O)(=O)N[C@H]2CCCc3ccc(C(=O)N4CCC5(CC4)CCN(c4ccncc4)CC5)cc32)c(C)c1` [Example H-19, 4-methoxy-2,6-dimethyl-N-[(1S)-7-(9-pyridin-4-yl-3,9-diazaspiro[5.5]undecane-3-carbonyl)-1,2,3,4-tetrahydro-naphthalen-1-yl]-benzenesulfonic acid amide] was tested, and the inhibition at 10 µM [1] was 99% and the inhibition at 10 µM [2] was 102%.

In the case of `N#Cc1ccc(N2CCC3(CCN(C(=O)c4ccc5c(c4)[C@H](NC(=O)c4ccccc4Cl)CC5)C3)CC2)cc1` [Example H-140, 2-Chloro-N-[(1R)-6-[8-(4-cyano-phenyl)-3,8-diazaspiro[4.5]decane-3-carbonyl]-2,3-dihydro-1H-inden-1-yl]-benzamide], the inhibition at 10 µM [1] is reported as 70% and the inhibition at 10 µM [2] is reported as 100%.

With `O=C(N[C@@H]1CCc2c(C(=O)N3CCC4(CCN(c5ccncc5)CC4)C3)cccc21)c1ccccc1Cl` [Example H-162, 2-Chloro-N-[(1R)-4-(8-pyridin-4-yl-3,8-diazaspiro[4.5]decane-3-carbonyl)-2,3-dihydro-1H-inden-1-yl]-benzamide] the inhibition at 10 µM [1] was 13% and the inhibition at 10 µM [2] was 61%.

`O=C(N[C@@H]1CCCc2ccc(C(=O)N3CCC4(CCCN(c5ccncc5)C4)CC3)cc21)c1ccccc1Cl` [Example H-80] was tested, and the inhibition at 10 µM [1] was 57% and the inhibition at 10 µM [2] was 105%.

For `O=C(c1ccc2c(c1)[C@H](N(CC(F)(F)F)C(=O)c1ccccc1Cl)CC2)N1CCC2(CCN(c3ccncc3)CC2)C1` [Example H-137, 2-Chloro-N-[(1R)-6-(8-pyridin-4-yl-3,8-diazaspiro[4.5]decane-3-carbonyl)-2,3-dihydro-1H-inden-1-yl]-N-(2,2,2-trifluoro-ethyl)-benzamide], the inhibition at 10 µM [1] was 99% and the inhibition at 10 µM [2] was 103%.

In the case of `O=C(NC1CCCCc2ccc(C(=O)N3CCC4(CC3)CCN(c3cccnc3)CC4)cc21)c1ccccc1Cl` (stereo not shown) [Ind_CC-121, 2-chloro-N-[3-(9-pyridin-3-yl-3,9-diazaspiro[5.5]undecane-3-carbonyl)-6,7,8,9-tetrahydro-5H-benzocyclohepten-5-yl]-benzamide], the inhibition at 10 µM [1] is reported as 46% and the inhibition at 10 µM [2] is reported as 103%.

In the case of `COc1cc(C)c(C(=O)NC2CCc3ccc(C(=O)N4CCC5(CC4)CCN(c4ccncc4)C5)cc32)c(C)c1` (stereo not shown) [Ind_CC-094, 4-methoxy-2,6-dimethyl-N-[6-(2-pyridin-4-yl-2,8-diazaspiro[4.5]decane-8-carbonyl)-2,3-dihydro-1H-inden-1-yl]-benzamide], the inhibition at 10 µM [1] is reported as 42% and the inhibition at 10 µM [2] is reported as 65%.

`O=C(c1ccc2c(c1)[C@H](NS(=O)(=O)c1cccc(Cl)c1Cl)CC2)N1CCC2(CCN(c3ccncc3)CC2)C1` [Example H-113, 2,3-Dichloro-N-[(1R)-6-(8-pyridin-4-yl-3,8-diazaspiro[4.5]decane-3-carbonyl)-2,3-dihydro-1H-inden-1-yl]-benzenesulfonic acid amide] showed an inhibition at 10 µM [1] of 99% and an inhibition at 10 µM [2] of 92%.

`CN(C(=O)c1ccc(F)cc1Cl)C1CCc2ccc(C(=O)N3CCC4(CC3)CCN(c3ccncc3)CC4)cc21` (stereo not shown) [IND_CC-261, 2-Chloro-4-fluoro-N-methyl-N-[6-(9-pyridin-4-yl-3,9-diazaspiro[5.5]undecane-3-carbonyl)-2,3-dihydro-1H-inden-1-yl]-benzamide] was tested, and the inhibition at 10 µM [1] was 100% and the inhibition at 10 µM [2] was 103%.

Compound `O=C(NC1CCc2ccc(C(=O)N3CCC4(CC3)CCN(c3ccc(C(F)(F)F)cc3)CC4)cc21)c1ccccc1Cl` (stereo not shown) [IND_CC-290, 2-Chloro-N-[6-[9-[4-(trifluoromethyl)-phenyl]-3,9-diazaspiro[5.5]undecane-3-carbonyl]-2,3-dihydro-1H-inden-1-yl]-benzamide] has an inhibition at 10 µM [1] of 35% and an inhibition at 10 µM [2] of 100%.
